Key:
Assay in all cases: relative viability (nuclei count vs DMSO), 5 days (fraction); higher = more cells survive
201T = test system: 201T
In short: (§1)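 Dosing by pin tool came one day after lung cancer cell lines were seeded in 1536-well plates, using either one drug or a fixed anchor-drug dose plus five library-drug doses (not always all listed) in √10 steps. After 5 days, nuclei were counted on 4× images. Relative viability is treated-well nuclei count divided by vehicle-well nuclei count, and values are medians of duplicate plates.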

COR-L 105 = test system: COR-L 105
In short: as §1

ChaGo-K-1 = test system: ChaGo-K-1
In short: as §1

EPLC-272H = test system: EPLC-272H
In short: as §1

H3255 = test system: H3255
In short: as §1

HCC-78 = test system: HCC-78
In short: as §1

HCC-827 = test system: HCC-827
In short: as §1

LC-2-ad = test system: LC-2-ad
In short: as §1

LCLC-97TM1 = test system: LCLC-97TM1
In short: as §1

NCI-H1666 = test system: NCI-H1666
In short: as §1

NCI-H1915 = test system: NCI-H1915
In short: as §1

NCI-H2087 = test system: NCI-H2087
In short: as §1

NCI-H2126 = test system: NCI-H2126
In short: as §1

NCI-H2347 = test system: NCI-H2347
In short: as §1

NCI-H23 = test system: NCI-H23
In short: as §1

NCI-H2405 = test system: NCI-H2405
In short: as §1

NCI-H520 = test system: NCI-H520
In short: as §1

NCI-H647 = test system: NCI-H647
In short: as §1

NCI-H650 = test system: NCI-H650
In short: as §1

NCI-H661 = test system: NCI-H661
In short: as §1

PC-14 = test system: PC-14
In short: as §1

RERF-LC-KJ = test system: RERF-LC-KJ
In short: as §1

CCN(CC)CCCCNc1ncc2cc(-c3cc(OC)cc(OC)c3)c(NC(=O)NC(C)(C)C)nc2n1 + CC(C)C[C@H](NC(=O)[C@H](Cc1ccccc1)NC(=O)c1cnccn1)B(O)O [Bortezomib] (partner 0.002 µM)
relative viability (201T; first compound 0.01 µM): 1.03 | relative viability (201T; first compound 0.03162 µM): 1.14 | relative viability (201T; first compound 0.1 µM): 1.14 | relative viability (201T; first compound 0.3162 µM): 1.15 | relative viability (201T; first compound 1 µM): 0.976 | relative viability (COR-L 105; first compound 0.01 µM): 0.691 | relative viability (COR-L 105; first compound 0.03162 µM): 0.824 | relative viability (COR-L 105; first compound 0.1 µM): 0.859 | relative viability (COR-L 105; first compound 0.3162 µM): 0.968 | relative viability (COR-L 105; first compound 1 µM): 0.732 | relative viability (ChaGo-K-1; first compound 0.01 µM): 1.08 | relative viability (ChaGo-K-1; first compound 0.03162 µM): 1.14 | relative viability (ChaGo-K-1; first compound 0.1 µM): 1.28 | relative viability (ChaGo-K-1; first compound 0.3162 µM): 1.27 | relative viability (ChaGo-K-1; first compound 1 µM): 0.742 | relative viability (EPLC-272H; first compound 0.01 µM): 1.02 | relative viability (EPLC-272H; first compound 0.1 µM): 0.921 | relative viability (EPLC-272H; first compound 0.3162 µM): 1.03 | relative viability (EPLC-272H; first compound 1 µM): 0.796 | relative viability (H3255; first compound 0.01 µM): 0.762 | relative viability (H3255; first compound 0.03162 µM): 0.773 | relative viability (H3255; first compound 0.1 µM): 1.02 | relative viability (H3255; first compound 0.3162 µM): 1.21 | relative viability (H3255; first compound 1 µM): 0.656 | relative viability (HCC-78; first compound 0.01 µM): 0.66 | relative viability (HCC-78; first compound 0.03162 µM): 0.487 | relative viability (HCC-78; first compound 0.1 µM): 0.395 | relative viability (HCC-78; first compound 0.3162 µM): 0.492 | relative viability (HCC-78; first compound 1 µM): 0.464 | relative viability (HCC-827; first compound 0.01 µM): 1.07 | relative viability (HCC-827; first compound 0.03162 µM): 1 | relative viability (HCC-827; first compound 0.1 µM): 1.09 | relative viability (HCC-827; first compound 0.3162 µM): 1.04 | relative viability (HCC-827; first compound 1 µM): 1.05 | relative viability (LC-2-ad; first compound 0.01 µM): 0.998 | relative viability (LC-2-ad; first compound 0.03162 µM): 1.06 | relative viability (LC-2-ad; first compound 0.1 µM): 1.33 | relative viability (LC-2-ad; first compound 0.3162 µM): 1.05 | relative viability (LC-2-ad; first compound 1 µM): 1 | relative viability (LCLC-97TM1; first compound 0.01 µM): 0.723 | relative viability (LCLC-97TM1; first compound 0.03162 µM): 0.614 | relative viability (LCLC-97TM1; first compound 0.1 µM): 0.789 | relative viability (LCLC-97TM1; first compound 0.3162 µM): 1.54 | relative viability (LCLC-97TM1; first compound 1 µM): 0.305 | relative viability (NCI-H1666; first compound 0.01 µM): 0.74 | relative viability (NCI-H1666; first compound 0.03162 µM): 0.848 | relative viability (NCI-H1666; first compound 0.1 µM): 0.837 | relative viability (NCI-H1666; first compound 0.3162 µM): 0.724 | relative viability (NCI-H1666; first compound 1 µM): 0.733 | relative viability (NCI-H1915; first compound 0.01 µM): 1.07 | relative viability (NCI-H1915; first compound 0.03162 µM): 1.1 | relative viability (NCI-H1915; first compound 0.1 µM): 1.18 | relative viability (NCI-H1915; first compound 0.3162 µM): 1.09 | relative viability (NCI-H1915; first compound 1 µM): 0.951 | relative viability (NCI-H2087; first compound 0.01 µM): 0.85 | relative viability (NCI-H2087; first compound 0.03162 µM): 0.909 | relative viability (NCI-H2087; first compound 0.1 µM): 1.08 | relative viability (NCI-H2087; first compound 0.3162 µM): 1.04 | relative viability (NCI-H2087; first compound 1 µM): 0.689 | relative viability (NCI-H2126; first compound 0.01 µM): 1.23 | relative viability (NCI-H2126; first compound 0.03162 µM): 1.16 | relative viability (NCI-H2126; first compound 0.1 µM): 1.22 | relative viability (NCI-H2126; first compound 0.3162 µM): 1.19 | relative viability (NCI-H2126; first compound 1 µM): 1.13 | relative viability (NCI-H2347; first compound 0.01 µM): 0.855 | relative viability (NCI-H2347; first compound 0.03162 µM): 0.864 | relative viability (NCI-H2347; first compound 0.1 µM): 1.2 | relative viability (NCI-H2347; first compound 0.3162 µM): 1.16 | relative viability (NCI-H2347; first compound 1 µM): 0.639 | relative viability (NCI-H23; first compound 0.01 µM): 1.06 | relative viability (NCI-H23; first compound 0.03162 µM): 1.24 | relative viability (NCI-H23; first compound 0.1 µM): 1.09 | relative viability (NCI-H23; first compound 0.3162 µM): 1.21 | relative viability (NCI-H23; first compound 1 µM): 0.91 | relative viability (NCI-H2405; first compound 0.01 µM): 0.973 | relative viability (NCI-H2405; first compound 0.03162 µM): 0.866 | relative viability (NCI-H2405; first compound 0.1 µM): 1.05 | relative viability (NCI-H2405; first compound 0.3162 µM): 1.04 | relative viability (NCI-H2405; first compound 1 µM): 0.982 | relative viability (NCI-H520; first compound 0.01 µM): 0.787 | relative viability (NCI-H520; first compound 0.03162 µM): 0.442 | relative viability (NCI-H520; first compound 0.1 µM): 0.938 | relative viability (NCI-H520; first compound 0.3162 µM): 0.461 | relative viability (NCI-H520; first compound 1 µM): 0.244 | relative viability (NCI-H647; first compound 0.01 µM): 1.02 | relative viability (NCI-H647; first compound 0.03162 µM): 0.996 | relative viability (NCI-H647; first compound 0.1 µM): 1.6 | relative viability (NCI-H647; first compound 0.3162 µM): 1.08 | relative viability (NCI-H647; first compound 1 µM): 1.07 | relative viability (NCI-H650; first compound 0.01 µM): 0.701 | relative viability (NCI-H650; first compound 0.03162 µM): 0.787 | relative viability (NCI-H650; first compound 0.1 µM): 1.1 | relative viability (NCI-H650; first compound 0.3162 µM): 0.921 | relative viability (NCI-H650; first compound 1 µM): 0.678 | relative viability (NCI-H661; first compound 0.01 µM): 0.892 | relative viability (NCI-H661; first compound 0.03162 µM): 0.811 | relative viability (NCI-H661; first compound 0.1 µM): 0.745 | relative viability (NCI-H661; first compound 0.3162 µM): 0.922 | relative viability (NCI-H661; first compound 1 µM): 0.634 | relative viability (PC-14; first compound 0.01 µM): 0.894 | relative viability (PC-14; first compound 0.03162 µM): 0.855 | relative viability (PC-14; first compound 0.1 µM): 0.947 | relative viability (PC-14; first compound 0.3162 µM): 0.962 | relative viability (PC-14; first compound 1 µM): 0.843 | relative viability (RERF-LC-KJ; first compound 0.01 µM): 1.17 | relative viability (RERF-LC-KJ; first compound 0.03162 µM): 1.15 | relative viability (RERF-LC-KJ; first compound 0.1 µM): 1.05 | relative viability (RERF-LC-KJ; first compound 0.3162 µM): 1.21 | relative viability (RERF-LC-KJ; first compound 1 µM): 1

From the supplement of paper PMC10307832
